# Measurements: ChEMBL document CHEMBL1130953, “Synthesis of 6-O-methyl-azithromycin and its ketolide analogue via Beckmann rearrangement of 9(E)-6-O-methyl-erythromycin oxime” (1998)
# Key:
# Format in all cases: functional
# Streptococcus pneumoniae [1] = assay: Compound was tested for antibacterial activity against Streptococcus pneumoniae 030SJ5i EryRi using standard broth microdilution assay.
# Streptococcus pyogenes = assay: Compound was tested for antibacterial activity against Streptococcus pyogenes 02A1UC1 using standard broth microdilution assay.
# Staphylococcus aureus = assay: Compound was tested for antibacterial activity against Staphylococcus aureus 011UC4 using standard broth microdilution assay.
# Haemophilus influenzae = assay: Compound was tested for antibacterial activity against Haemophilus influenzae 351HT3 using standard broth microdilution assay.
# Streptococcus pneumoniae [2] = assay: Compound was tested for antibacterial activity against Streptococcus pneumoniae 030SJ1 EryRc using standard broth microdilution assay.
# Escherichia coli = assay: Compound was tested for antibacterial activity against Escherichia coli 250 UC5 using standard broth microdilution assay.
# Streptococcus pneumoniae [3] = assay: Compound was tested for antibacterial activity against Streptococcus pneumoniae 032UC1 using standard broth microdilution assay.
SMILES,MIC (Streptococcus pneumoniae [1]) [µg/mL],MIC (Streptococcus pyogenes) [µg/mL],MIC (Staphylococcus aureus) [µg/mL],MIC (Haemophilus influenzae) [µg/mL],MIC (Streptococcus pneumoniae [2]) [µg/mL],MIC (Escherichia coli) [µg/mL],MIC (Streptococcus pneumoniae [3]) [µg/mL]
CC[C@H]1OC(=O)[C@H](C)C(=O)[C@H](C)[C@@H](OC2O[C@H](C)C[C@H](N(C)C)[C@H]2O)[C@](C)(OC)C[C@@H](C)C(=O)[C@H](C)[C@H]2N(CCCCn3cnc(-c4cccnc4)c3)C(=O)O[C@]12C (some centres not stated),0.02,0.02,0.04,1.2,0.02,10,0.02
CC[C@H]1OC(=O)[C@H](C)C(=O)[C@H](C)[C@@H](O[C@@H]2O[C@H](C)C[C@H](N(C)C)[C@H]2O)[C@](C)(OC)C[C@@H](C)CN(C)[C@H](C)[C@@H](O)[C@]1(C)O,40,40,40,40,40,40,40
CC[C@H]1OC(=O)[C@H](C)[C@@H](O[C@H]2C[C@@](C)(OC)[C@@H](O)[C@H](C)O2)[C@H](C)[C@@H](O[C@@H]2O[C@H](C)C[C@H](N(C)C)[C@H]2O)[C@](C)(O)C[C@@H](C)CN(C)[C@H](C)[C@@H](O)[C@]1(C)O [AZITHROMYCIN],40,0.6,0.3,1.2,40,20,0.15

# Second part, the molecule after the results:
MIC (Streptococcus pneumoniae [1]) [µg/mL],MIC (Streptococcus pyogenes) [µg/mL],MIC (Staphylococcus aureus) [µg/mL],MIC (Haemophilus influenzae) [µg/mL],MIC (Streptococcus pneumoniae [2]) [µg/mL],MIC (Escherichia coli) [µg/mL],MIC (Streptococcus pneumoniae [3]) [µg/mL],SMILES
40,40,20,10,40,40,40,CC[C@H]1OC(=O)[C@H](C)[C@@H](O[C@H]2C[C@@](C)(OC)[C@@H](O)[C@H](C)O2)[C@H](C)[C@@H](O[C@@H]2O[C@H](C)C[C@H](N(C)C)[C@H]2O)[C@](C)(OC)C[C@@H](C)C2=N[C@H](C)[C@@H](O2)[C@]1(C)O
10,0.6,1.2,2.5,40,40,1.2,CC[C@H]1OC(=O)[C@H](C)[C@@H](O[C@H]2C[C@@](C)(OC)[C@@H](O)[C@H](C)O2)[C@H](C)[C@@H](OC2O[C@H](C)C[C@H](N(C)C)[C@H]2O)[C@](C)(OC)C[C@@H](C)C(=O)N[C@H](C)[C@@H](O)[C@]1(C)O (some centres not stated)
> 40,0.15,1.2,2.5,> 40,20,0.15,CC[C@H]1OC(=O)[C@H](C)[C@@H](O[C@H]2C[C@@](C)(OC)[C@@H](O)[C@H](C)O2)[C@H](C)[C@@H](O[C@@H]2O[C@H](C)C[C@H](N(C)C)[C@H]2O)[C@](C)(OC)C[C@@H](C)CN(C)[C@H](C)[C@@H](O)[C@]1(C)O
